Among the data in ChEMBL document CHEMBL2429832, “N-substituted 8-aminopentacyclo[5.4.0.0(2,6).0(3,10).0(5,9)]undecanes as σ receptor ligands with potential neuroprotective effects” (Bioorg Med Chem, 2013) are inhibition and Ratio Ki values, retold here.

In experiment [1] the target is Sodium-dependent dopamine transporter (Homo sapiens, UniProt Q01959). Put plainly: Displacement of [3H]-WIN-35,428 from human DAT expressed in HEK cell membranes at 10 uM relative to control. As to conditions: HEK293. (In general: Loss of bound radioactivity is the signal in a displacement assay; it reports binding, not function.)
In experiment [2] the target is Delta-type opioid receptor (Homo sapiens, UniProt P41143). The experiment is described as follows: Inhibition of delta opioid receptor (unknown origin) at 10 uM by PDSP assay relative to control.
The next experiment has as its target Histamine H3 receptor (Homo sapiens, UniProt Q9Y5N1). Put plainly: Inhibition of histamine H3 receptor (unknown origin) at 10 uM by PDSP assay relative to control.
The species entered for another experiment is Rattus norvegicus. The experiment is described as follows: Inhibition of rat brain BZP receptor at 10 uM by PDSP assay relative to control.
Experiment [3] has as its target 5-hydroxytryptamine receptor 1E (Homo sapiens) (UniProt P28566). The experiment is described as follows: Inhibition of 5-HT1E receptor (unknown origin) at 10 uM by PDSP assay relative to control.
For experiment [4], the target named is T1, 5-hydroxytryptamine receptor 3A (Homo sapiens) (UniProt P46098).
T1 sequence (whole entry): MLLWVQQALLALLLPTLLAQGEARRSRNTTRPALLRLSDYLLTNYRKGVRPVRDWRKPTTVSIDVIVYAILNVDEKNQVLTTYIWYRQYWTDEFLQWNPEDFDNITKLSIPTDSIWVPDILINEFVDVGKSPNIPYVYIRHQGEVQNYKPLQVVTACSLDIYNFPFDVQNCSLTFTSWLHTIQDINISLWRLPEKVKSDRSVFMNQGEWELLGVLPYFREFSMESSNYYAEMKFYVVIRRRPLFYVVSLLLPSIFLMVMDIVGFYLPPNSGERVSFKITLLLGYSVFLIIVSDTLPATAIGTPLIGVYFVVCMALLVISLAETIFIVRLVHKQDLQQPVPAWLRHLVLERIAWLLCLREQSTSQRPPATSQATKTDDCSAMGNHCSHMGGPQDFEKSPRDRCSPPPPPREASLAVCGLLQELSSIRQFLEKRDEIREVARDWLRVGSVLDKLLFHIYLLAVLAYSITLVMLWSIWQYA
The experiment is described as follows: Inhibition of 5-HT3 receptor (unknown origin) at 10 uM by PDSP assay relative to control.

A further experiment addresses Histamine H2 receptor (Homo sapiens, UniProt P25021). The experiment is described as follows: Inhibition of histamine H2 receptor (unknown origin) at 10 uM by PDSP assay relative to control.
Experiment [5] deals with T2, Alpha-1B adrenergic receptor (Homo sapiens) (UniProt P35368).
T2 sequence (whole entry): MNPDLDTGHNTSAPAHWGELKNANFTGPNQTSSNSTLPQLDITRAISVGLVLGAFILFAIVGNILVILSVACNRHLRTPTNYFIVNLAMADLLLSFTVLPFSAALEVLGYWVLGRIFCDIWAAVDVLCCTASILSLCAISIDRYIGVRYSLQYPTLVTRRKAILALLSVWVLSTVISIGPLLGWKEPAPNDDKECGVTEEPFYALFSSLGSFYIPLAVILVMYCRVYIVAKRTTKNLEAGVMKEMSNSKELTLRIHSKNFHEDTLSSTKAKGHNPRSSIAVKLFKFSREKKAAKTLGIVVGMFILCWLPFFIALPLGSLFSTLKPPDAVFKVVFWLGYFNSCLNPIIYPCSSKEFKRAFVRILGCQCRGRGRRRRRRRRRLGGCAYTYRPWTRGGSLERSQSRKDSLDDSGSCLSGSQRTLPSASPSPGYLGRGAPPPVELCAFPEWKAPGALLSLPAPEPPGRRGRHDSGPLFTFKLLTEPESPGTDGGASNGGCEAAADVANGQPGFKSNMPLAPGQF
Put plainly: Inhibition of adrenergic alpha1B receptor (unknown origin) at 10 uM by PDSP assay relative to control.

A further experiment has as its target D(2) dopamine receptor (Homo sapiens, UniProt P14416). The experiment is described as follows: Inhibition of dopamine D2 receptor (unknown origin) at 10 uM by PDSP assay relative to control.
Experiment [6] has as its target Muscarinic acetylcholine receptor M3 (Homo sapiens, UniProt P20309). Put plainly: Inhibition of muscarinic M3 receptor (unknown origin) at 10 uM by PDSP assay relative to control.
Experiment [7] concerns the target D(1A) dopamine receptor (Homo sapiens) (UniProt P21728). The experiment is described as follows: Inhibition of dopamine D1 receptor (unknown origin) at 10 uM by PDSP assay relative to control.
Experiment [8] concerns the target 5-hydroxytryptamine receptor 5A (Homo sapiens, UniProt P47898). Put plainly: Inhibition of 5-HT5A receptor (unknown origin) at 10 uM by PDSP assay relative to control.
The next experiment relates to PC-12. Put plainly: Selectivity ratio of Ki for sigma-1 receptor in rat brain homogenates to Ki for sigma-2 receptor in rat PC12 cells. Format: cell-based.
A further experiment addresses Histamine H4 receptor (Homo sapiens, UniProt Q9H3N8). The experiment is described as follows: Inhibition of histamine H4 receptor (unknown origin) at 10 uM by PDSP assay relative to control.
Experiment [9] deals with GABA-A receptor; agonist GABA site (Homo sapiens) (UniProt P14867+P47870+P28472+P48169+P34903+P18505+P47869+P31644+Q16445). Put plainly: Inhibition of GABAA receptor (unknown origin) at 10 uM by PDSP assay relative to control. In kind it is protein-complex assay.
For experiment [10], the target named is T3, Muscarinic acetylcholine receptor M5 (Homo sapiens) (UniProt P08912).
T3 sequence (whole entry): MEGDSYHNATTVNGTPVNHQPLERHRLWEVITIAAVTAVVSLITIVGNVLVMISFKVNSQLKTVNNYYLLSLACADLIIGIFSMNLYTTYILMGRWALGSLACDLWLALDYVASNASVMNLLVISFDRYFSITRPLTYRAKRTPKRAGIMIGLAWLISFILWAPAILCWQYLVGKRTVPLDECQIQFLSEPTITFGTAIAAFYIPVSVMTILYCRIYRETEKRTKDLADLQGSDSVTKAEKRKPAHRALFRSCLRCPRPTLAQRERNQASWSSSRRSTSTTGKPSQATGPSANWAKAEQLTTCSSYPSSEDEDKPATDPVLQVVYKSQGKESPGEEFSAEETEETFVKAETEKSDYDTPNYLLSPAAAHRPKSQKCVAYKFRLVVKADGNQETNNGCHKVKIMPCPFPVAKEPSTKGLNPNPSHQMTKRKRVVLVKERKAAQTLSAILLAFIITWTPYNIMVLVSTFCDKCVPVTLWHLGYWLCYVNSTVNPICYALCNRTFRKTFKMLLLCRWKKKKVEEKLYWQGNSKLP
The experiment is described as follows: Inhibition of muscarinic M5 receptor (unknown origin) at 10 uM by PDSP assay relative to control.

As a reminder, the inhibition is the share of the control response that was lost under treatment.

Sequence of Delta-type opioid receptor (P41143 whole entry): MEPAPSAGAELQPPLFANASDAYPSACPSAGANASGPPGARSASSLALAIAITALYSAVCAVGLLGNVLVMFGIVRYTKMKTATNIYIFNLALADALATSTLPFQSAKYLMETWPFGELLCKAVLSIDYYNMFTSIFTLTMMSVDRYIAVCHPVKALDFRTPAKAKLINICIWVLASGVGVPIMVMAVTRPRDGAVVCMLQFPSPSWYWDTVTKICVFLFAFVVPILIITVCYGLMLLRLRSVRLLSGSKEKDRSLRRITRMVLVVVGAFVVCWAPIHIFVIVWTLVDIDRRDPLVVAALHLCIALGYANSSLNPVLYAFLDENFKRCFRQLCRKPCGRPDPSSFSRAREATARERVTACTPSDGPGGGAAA
Sequence of Histamine H2 receptor (P25021 whole entry): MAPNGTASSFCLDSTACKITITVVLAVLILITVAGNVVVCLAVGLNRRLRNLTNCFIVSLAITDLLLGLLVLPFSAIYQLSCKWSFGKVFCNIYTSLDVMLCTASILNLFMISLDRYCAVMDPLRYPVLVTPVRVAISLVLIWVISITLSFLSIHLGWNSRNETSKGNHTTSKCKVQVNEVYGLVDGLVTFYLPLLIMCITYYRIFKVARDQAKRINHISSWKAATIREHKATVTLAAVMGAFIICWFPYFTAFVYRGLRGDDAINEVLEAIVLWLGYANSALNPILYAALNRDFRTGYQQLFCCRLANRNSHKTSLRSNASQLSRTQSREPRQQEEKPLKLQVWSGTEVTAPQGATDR
Sequence of 5-hydroxytryptamine receptor 5A (P47898 whole entry): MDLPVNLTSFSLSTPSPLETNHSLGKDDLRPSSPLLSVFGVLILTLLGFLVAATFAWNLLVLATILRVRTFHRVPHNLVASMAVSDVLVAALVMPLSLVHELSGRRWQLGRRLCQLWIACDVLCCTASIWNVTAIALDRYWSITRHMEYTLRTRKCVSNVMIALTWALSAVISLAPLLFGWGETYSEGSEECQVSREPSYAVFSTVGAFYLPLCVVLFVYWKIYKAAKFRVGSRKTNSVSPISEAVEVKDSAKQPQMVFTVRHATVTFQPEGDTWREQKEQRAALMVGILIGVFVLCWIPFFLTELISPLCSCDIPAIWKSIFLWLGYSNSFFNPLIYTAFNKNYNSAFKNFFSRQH
Sequence of D(1A) dopamine receptor (Homo sapiens) (P21728 whole entry): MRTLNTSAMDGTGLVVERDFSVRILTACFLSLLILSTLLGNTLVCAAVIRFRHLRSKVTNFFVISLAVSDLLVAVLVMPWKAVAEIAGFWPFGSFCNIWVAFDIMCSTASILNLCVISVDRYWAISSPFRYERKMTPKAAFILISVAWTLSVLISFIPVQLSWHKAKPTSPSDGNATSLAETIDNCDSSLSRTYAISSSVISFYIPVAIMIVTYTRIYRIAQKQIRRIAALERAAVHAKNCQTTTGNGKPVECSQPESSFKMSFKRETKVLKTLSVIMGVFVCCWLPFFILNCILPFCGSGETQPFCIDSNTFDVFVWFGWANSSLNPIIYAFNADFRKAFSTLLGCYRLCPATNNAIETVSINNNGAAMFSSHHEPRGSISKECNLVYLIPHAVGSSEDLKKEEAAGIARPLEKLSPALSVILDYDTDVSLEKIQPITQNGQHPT
Sequence of D(2) dopamine receptor (P14416 whole entry): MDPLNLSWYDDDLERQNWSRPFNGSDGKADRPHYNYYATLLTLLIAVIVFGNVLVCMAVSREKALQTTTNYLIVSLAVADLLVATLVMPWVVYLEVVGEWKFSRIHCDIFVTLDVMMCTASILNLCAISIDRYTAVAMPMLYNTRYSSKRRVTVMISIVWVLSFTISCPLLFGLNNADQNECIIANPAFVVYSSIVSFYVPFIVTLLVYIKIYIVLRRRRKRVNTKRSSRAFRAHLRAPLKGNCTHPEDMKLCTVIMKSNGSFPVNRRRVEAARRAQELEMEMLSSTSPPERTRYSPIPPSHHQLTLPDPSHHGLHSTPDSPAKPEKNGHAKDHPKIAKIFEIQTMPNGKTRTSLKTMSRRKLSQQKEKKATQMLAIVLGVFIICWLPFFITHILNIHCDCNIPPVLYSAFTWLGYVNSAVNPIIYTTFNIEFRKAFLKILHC
Sequence of Muscarinic acetylcholine receptor M3 (P20309 whole entry, looked up): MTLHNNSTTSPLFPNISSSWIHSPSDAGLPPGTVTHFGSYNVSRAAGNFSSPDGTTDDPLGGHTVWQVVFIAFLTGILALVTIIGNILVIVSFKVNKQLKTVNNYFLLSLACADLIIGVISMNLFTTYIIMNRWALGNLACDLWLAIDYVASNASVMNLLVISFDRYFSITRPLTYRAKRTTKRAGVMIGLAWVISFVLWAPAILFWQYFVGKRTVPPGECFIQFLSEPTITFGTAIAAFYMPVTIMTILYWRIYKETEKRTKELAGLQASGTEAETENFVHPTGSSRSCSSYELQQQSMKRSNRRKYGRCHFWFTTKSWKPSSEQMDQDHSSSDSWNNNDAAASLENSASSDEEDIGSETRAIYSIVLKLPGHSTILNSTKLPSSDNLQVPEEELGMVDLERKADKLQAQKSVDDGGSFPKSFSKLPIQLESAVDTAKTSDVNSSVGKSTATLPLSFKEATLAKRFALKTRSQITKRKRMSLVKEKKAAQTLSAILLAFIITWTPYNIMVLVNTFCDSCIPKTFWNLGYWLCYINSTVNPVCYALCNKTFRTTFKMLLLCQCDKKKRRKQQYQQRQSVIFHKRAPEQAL
Sequence of Sodium-dependent dopamine transporter (Q01959 whole entry): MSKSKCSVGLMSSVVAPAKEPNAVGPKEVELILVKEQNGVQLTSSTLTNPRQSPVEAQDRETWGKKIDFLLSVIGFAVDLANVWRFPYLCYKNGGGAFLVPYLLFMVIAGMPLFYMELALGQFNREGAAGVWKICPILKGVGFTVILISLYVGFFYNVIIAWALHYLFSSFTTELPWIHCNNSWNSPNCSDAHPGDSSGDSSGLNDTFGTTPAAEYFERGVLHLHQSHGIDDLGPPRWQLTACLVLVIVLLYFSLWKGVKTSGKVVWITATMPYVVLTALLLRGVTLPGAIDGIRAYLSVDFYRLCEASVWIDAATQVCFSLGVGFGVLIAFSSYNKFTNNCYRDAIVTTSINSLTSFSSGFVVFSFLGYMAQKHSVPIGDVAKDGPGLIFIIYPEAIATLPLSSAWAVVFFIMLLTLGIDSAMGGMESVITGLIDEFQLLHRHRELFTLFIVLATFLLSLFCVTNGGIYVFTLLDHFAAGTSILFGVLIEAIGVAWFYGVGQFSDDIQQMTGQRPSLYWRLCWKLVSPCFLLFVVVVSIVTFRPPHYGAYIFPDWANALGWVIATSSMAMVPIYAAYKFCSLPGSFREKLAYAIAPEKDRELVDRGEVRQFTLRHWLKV
Sequence of Histamine H4 receptor (Q9H3N8 whole entry): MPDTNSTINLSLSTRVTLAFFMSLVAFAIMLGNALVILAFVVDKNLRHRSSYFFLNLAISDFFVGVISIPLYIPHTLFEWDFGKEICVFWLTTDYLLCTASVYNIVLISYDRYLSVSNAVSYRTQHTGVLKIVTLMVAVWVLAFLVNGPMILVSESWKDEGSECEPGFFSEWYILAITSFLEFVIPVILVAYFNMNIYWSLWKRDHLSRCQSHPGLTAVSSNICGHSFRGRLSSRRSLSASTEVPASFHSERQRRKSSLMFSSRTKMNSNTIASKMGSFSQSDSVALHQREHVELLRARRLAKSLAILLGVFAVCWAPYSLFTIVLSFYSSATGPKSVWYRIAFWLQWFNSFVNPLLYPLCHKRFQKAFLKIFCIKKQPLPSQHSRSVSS
Sequence of Histamine H3 receptor (Q9Y5N1 whole entry): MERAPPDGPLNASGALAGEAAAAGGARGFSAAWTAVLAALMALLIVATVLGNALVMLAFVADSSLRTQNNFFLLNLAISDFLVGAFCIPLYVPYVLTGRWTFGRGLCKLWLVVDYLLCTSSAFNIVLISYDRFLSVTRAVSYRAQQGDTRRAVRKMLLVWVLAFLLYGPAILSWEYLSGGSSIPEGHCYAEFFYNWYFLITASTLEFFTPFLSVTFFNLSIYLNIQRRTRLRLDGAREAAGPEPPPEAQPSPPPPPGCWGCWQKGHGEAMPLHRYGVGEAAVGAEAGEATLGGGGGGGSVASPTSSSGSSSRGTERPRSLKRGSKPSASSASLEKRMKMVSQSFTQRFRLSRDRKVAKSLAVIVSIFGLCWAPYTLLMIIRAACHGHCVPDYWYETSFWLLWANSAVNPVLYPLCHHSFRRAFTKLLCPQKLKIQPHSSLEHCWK
Sequence of 5-hydroxytryptamine receptor 1E (Homo sapiens) (P28566 whole entry): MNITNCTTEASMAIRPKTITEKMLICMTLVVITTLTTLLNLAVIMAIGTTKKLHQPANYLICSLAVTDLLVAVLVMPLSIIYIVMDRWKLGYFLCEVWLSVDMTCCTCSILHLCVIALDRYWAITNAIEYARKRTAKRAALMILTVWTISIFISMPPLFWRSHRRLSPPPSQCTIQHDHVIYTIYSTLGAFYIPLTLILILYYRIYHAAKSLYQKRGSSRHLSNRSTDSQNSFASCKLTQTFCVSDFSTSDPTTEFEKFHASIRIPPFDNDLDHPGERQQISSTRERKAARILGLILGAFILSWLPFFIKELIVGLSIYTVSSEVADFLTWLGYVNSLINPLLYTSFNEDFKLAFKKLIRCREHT

For the compound `C1CCC(CN[C@H]2C3C4CC5C6C4CC3C6C52)CC1` (stereo not given in full), the inhibition (in experiment [1]; in experiment [2]; at Histamine H3 receptor; in the experiment listed under Rattus norvegicus; in experiment [3]; in experiment [4]) was less than 50% in each case. In addition, the inhibition (at Histamine H2 receptor; in experiment [5]; against D(2) dopamine receptor; in [6]; in [7]; in experiment [8]) was less than 50% in each case. For the same compound, the inhibition (on Histamine H4 receptor; in experiment [9]) was less than 50% throughout. In addition, the Ratio Ki in the experiment with PC-12 was 2.1.
As for `CN(CCc1cccc(F)c1)[C@H]1C2C3CC4C2C(=O)C2C4C3C21` (stereo not given in full), the inhibition (in experiment [1]; in [2]; at Histamine H3 receptor; in the experiment filed under Rattus norvegicus; in experiment [3]; in experiment [4]) was less than 50% each time. In addition, the inhibition (against Histamine H2 receptor; in experiment [5]; on D(2) dopamine receptor; in experiment [6]; in experiment [7]; in [8]) was less than 50% throughout. In addition, the inhibition (against Histamine H4 receptor; in [9]) was less than 50% each time. The Ratio Ki in the experiment with PC-12 amounted to 7.4.
`CN(CCCc1cccc(F)c1)[C@H]1C2C3CC4C2C(=O)C2C4C3C21` (stereo not given in full): the inhibition (in [1]; in [2]; in the experiment listed under Rattus norvegicus; in experiment [3]; in experiment [4]; against Histamine H2 receptor) was less than 50% throughout. Moreover, the inhibition (in [5]; against D(2) dopamine receptor; in experiment [7]; in experiment [8]; against Histamine H4 receptor; in [9]) was less than 50% each time. For the same compound, the Ratio Ki in the experiment on PC-12 was 4.4.
For the compound `c1ccc(CCN[C@H]2C3C4CC5C6C4CC3C6C52)nc1` (stereo not given in full), the inhibition (in experiment [2]; against Histamine H3 receptor; in experiment [3]; in experiment [4]; on Histamine H2 receptor; in [7]) was less than 50% throughout. The same compound showed an inhibition in experiment [8] of less than 50%. Moreover, the Ratio Ki in the experiment on PC-12 turned out to be 2.5.
For `CN(Cc1ccccc1)[C@H]1C2C3CC4C2C(=O)C2C4C3C21` (stereo not given in full), the inhibition (in experiment [1]; in experiment [2]; at Histamine H3 receptor; in the experiment listed under Rattus norvegicus; in experiment [3]; in experiment [4]) was less than 50% in each case. Besides, the inhibition (against Histamine H2 receptor; in [5]; against D(2) dopamine receptor; in experiment [7]; in [8]; on Histamine H4 receptor) was less than 50% in each case. The inhibition in experiment [9] was less than 50%. Moreover, in the experiment with PC-12, the Ratio Ki is 2.6.
As to `COc1cc(CN[C@H]2C3C4CC5C6C4CC3C6C52)cc(OC)c1OC` (stereo not given in full), the inhibition (in [1]; in experiment [2]; against Histamine H3 receptor; in the experiment listed under Rattus norvegicus; in [3]; in [4]) was less than 50% in each case. The inhibition (in experiment [5]; against D(2) dopamine receptor; in [6]; in [7]; in [8]; against Histamine H4 receptor) was less than 50% throughout. Also, the inhibition in experiment [9] and in experiment [10] was less than 50% each time. Also, in the experiment with PC-12, the Ratio Ki stood at 1.6.
